In patent US20250215029A1 (Recludix Pharma, Inc., priority 2022, published 2025):
Read-outs that look alike come from different tables or passages of the source.

Key:
[1] = target: T1, Recombinant STAT6 protein (STAT6 (W123-T658)) (Homo sapiens, UniProt P42226); assay: STAT6 Fluorescence Polarization (FP) Assay; type: binding; conditions: 45-minute incubation
T1 construct: Recombinant STAT6 protein (STAT6 (W123-T658))
T1 sequence (P42226 123-658): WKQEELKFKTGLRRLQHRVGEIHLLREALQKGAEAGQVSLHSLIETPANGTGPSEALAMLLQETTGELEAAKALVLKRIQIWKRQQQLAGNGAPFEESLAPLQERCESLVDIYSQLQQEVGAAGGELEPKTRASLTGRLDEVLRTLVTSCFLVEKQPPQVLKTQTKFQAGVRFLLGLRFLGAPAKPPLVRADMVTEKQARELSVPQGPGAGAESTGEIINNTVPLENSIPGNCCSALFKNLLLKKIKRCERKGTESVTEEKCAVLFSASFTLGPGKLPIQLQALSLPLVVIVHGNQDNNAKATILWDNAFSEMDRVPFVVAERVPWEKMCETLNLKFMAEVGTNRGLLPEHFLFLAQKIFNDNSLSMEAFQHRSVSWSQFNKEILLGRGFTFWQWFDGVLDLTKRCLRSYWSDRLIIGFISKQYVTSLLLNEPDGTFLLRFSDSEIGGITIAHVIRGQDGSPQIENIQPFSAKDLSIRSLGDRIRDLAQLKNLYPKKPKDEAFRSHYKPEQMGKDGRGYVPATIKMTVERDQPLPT
In short: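 Fluorescence polarization (mP) read-out: 250 nM STAT6 (W123-T658) plus 2 nM 5-FAM phosphotyrosine peptide, 45 min, room temperature, 1% DMSO. IC50 by nonlinear fit of mP against log compound concentration.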

[2] = target: T2, Recombinant STAT3 protein (STAT3 (G127-I722)) (Homo sapiens, UniProt P40763); assay: STAT3 Fluorescence Polarization (FP) Assay; type: binding; conditions: probe 5-FAM-GpYLPQTV-NH2 2 nM, 45-minute incubation
T2 construct: Recombinant STAT3 protein (STAT3 (G127-I722))
T2 sequence (P40763 127-722): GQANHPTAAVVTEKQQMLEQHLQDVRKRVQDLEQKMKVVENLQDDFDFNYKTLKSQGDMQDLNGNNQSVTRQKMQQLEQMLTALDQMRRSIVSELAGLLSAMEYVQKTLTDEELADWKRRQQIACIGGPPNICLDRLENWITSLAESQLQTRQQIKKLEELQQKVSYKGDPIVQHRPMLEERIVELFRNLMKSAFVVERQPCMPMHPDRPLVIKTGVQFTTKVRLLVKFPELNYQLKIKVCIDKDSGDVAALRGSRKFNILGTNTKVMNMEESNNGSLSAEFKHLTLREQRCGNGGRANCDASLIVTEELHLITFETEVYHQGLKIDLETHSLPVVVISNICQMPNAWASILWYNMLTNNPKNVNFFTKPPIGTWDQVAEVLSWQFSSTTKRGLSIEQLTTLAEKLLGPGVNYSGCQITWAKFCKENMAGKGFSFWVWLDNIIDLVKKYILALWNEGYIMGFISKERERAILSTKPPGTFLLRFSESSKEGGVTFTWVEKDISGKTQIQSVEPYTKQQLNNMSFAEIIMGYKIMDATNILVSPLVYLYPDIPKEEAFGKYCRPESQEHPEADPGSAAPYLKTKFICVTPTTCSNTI
In short: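 Compounds in serial dilution receive a premix of STAT3 (G127-I722, 25 nM) and fluorescent phosphotyrosine peptide 5-FAM-GpYLPQTV-NH2 (2 nM) at pH 7.4. After 45 min at room temperature, FP is measured and IC50 derived by nonlinear regression.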

[3] = STAT6 (W123-T658) 250 nM, probe 5-FAM-Ap[…]-NH2 2 nM, read-out: STAT6 (FP assay IC50 class)
[4] = STAT3 (G127-I722) 25 nM, read-out: STAT3 (FP assay IC50 class)

SMILES | IC50 [1, 3] [µM] | IC50 [2, 4] [µM] | IC50 ([1]; STAT6 (W123-T658) 250 nM, probe 5-FAM-ApYKPFQDLI-NH2 2 nM, read-out: STAT6 (FP assay IC50 class)) [µM] | IC50 ([1]; STAT6 250 nM, probe 5-FAM-Ap[…]-NH2 2 nM, read-out: STAT6 (FP assay IC50)) [µM] | IC50 ([2]; STAT3 25 nM, read-out: STAT3 (FP assay IC50)) [µM]
N#CC1CN(C(=O)[C@@H]2C[C@@H](O)[C@@H]3C/C=C\C[C@H](NC(=O)c4cc5cc(C(F)(F)P(=O)(O)O)ccc5s4)C(=O)N23)CC1c1ccccc1 (mixture of isomers) [Compound 729, ((2-(((1R,3S,6S,10aS,Z)-3-((rel-trans)-3-cyano-4-phenylpyrrolidine-1-carbonyl)-1-hydroxy-5-oxo-1,2,3,5,6,7,10,10a-octahydropyrrolo[1,2-a]azocin-6-yl)carbamoyl)benzo [b]thiophen-5-yl)difluoromethyl) phosphonic acid] | ≤ 0.3 | 0.1 to 1 |  |  | 
O=C(N[C@H]1CCC[C@H]2CC[C@@H](C(=O)N3CCC(c4ncncc4F)CC3)N2C1=O)c1cc2cc(C(F)P(=O)(O)O)ccc2s1 (stereo partly drawn) [Compound 582, (fluoro(2-(((3S,6S,9aS)-3-(4-(5-fluoropyrimidin-4-yl)piperidine-1-carbonyl)-5-oxooctahydro-1H-pyrrolo[1,2-a]azepin-6-yl)carbamoyl)benzo[b]thiophen-5-yl)methyl)phosphonic acid] | 3 to 30 | 1 to 10 |  |  | 
O=C(N[C@H]1CCCC[C@H]2CC[C@@H](C(=O)N3CC(c4cnccc4F)C3)N2C1=O)c1cc2cc(CP(=O)(O)O)ccc2s1 [Compound 566, ((2-(((3S,6S,10aS)-3-(3-(4-fluoropyridin-3-yl)azetidine-1-carbonyl)-5-oxodecahydropyrrolo[1,2-a]azocin-6-yl)carbamoyl)benzo[b]thiophen-5-yl)methyl)phosphonic acid] | 3 to 30 | < 0.1 |  |  | 
O=C(N[C@H]1CCC[C@H]2CC[C@@H](C(=O)N3CC(c4cc(F)ccn4)C3)N2C1=O)c1cc2cc(CP(=O)(O)O)ccc2s1 [Compound 541, ((2-(((3S,6S,9aS)-3-(3-(4-fluoropyridin-2-yl)azetidine-1-carbonyl)-5-oxooctahydro-1H-pyrrolo[1,2-a]azepin-6-yl)carbamoyl)benzo[b]thiophen-5-yl)methyl)phosphonic acid] | 3 to 30 | 1 to 10 |  |  | 
O=C(/C=C/c1ccc(C(F)(F)P(=O)(O)O)cc1)N[C@H]1CCCC[C@H]2CC[C@@H](C(=O)N3Cc4cnn(-c5ccccc5)c4C3)N2C1=O [Compound 829, (difluoro(4-((E)-3-oxo-3-(((3S,6S,10aS)-5-oxo-3-(1-phenyl-1,4,5,6-tetrahydropyrrolo[3,4-c]pyrazole-5-carbonyl)decahydropyrrolo[1,2-a]azocin-6-yl)amino)prop-1-en-1-yl)phenyl)methyl) phosphonic acid] | 0.3 to 3 | 1 to 10 |  |  | 
CC(C)n1ccc(N2C(=O)N(C(=O)[C@@H]3CC[C@@H]4CCCC[C@H](NC(=O)c5cc6cc(C(F)P(=O)(O)O)ccc6s5)C(=O)N43)C3(CC3)C2=O)cc1=O (stereo partly drawn) [Compound 586, (fluoro(2-(((3S,6S,10aS)-3-(6-(1-isopropyl-2-oxo-1,2-dihydropyridin-4-yl)-5,7-dioxo-4,6-diazaspiro[2.4]heptane-4-carbonyl)-5-oxodecahydropyrrolo[1,2-a]azocin-6-yl)carbamoyl)benzo[b]thiophen-5-yl)methyl)phosphonic acid] | 0.3 to 3 | 1 to 10 |  |  | 
O=C(N[C@H]1CCC[C@H]2CC[C@@H](C(=O)NCc3ccc4[nH]c(=O)[nH]c4c3)N2C1=O)c1cc2cc(C(F)(F)P(=O)(O)O)ccc2s1 [Compound 1117, (difluoro(2-(((3S,6S,9aS)-5-oxo-3-(((2-oxo-2,3-dihydro-1H-benzo[d]imidazol-5-yl)methyl)carbamoyl)octahydro-1H-pyrrolo[1,2-a]azepin-6-yl)carbamoyl)benzo[b]thiophen-5-yl)methyl)phosphonic acid] | 0.3 to 3 | 0.1 to 1 |  |  | 
O=C(N[C@H]1CCC[C@H]2CC[C@@H](C(=O)N3CC(c4cnccn4)C3)N2C1=O)c1cc2cc(C(F)(F)P(=O)(O)O)ccc2s1 [Compound 797, (difluoro(2-(((3S,6S,9aS)-5-oxo-3-(3-(pyrazin-2-yl)azetidine-1-carbonyl)octahydro-1H-pyrrolo[1,2-a]azepin-6-yl)carbamoyl)benzo [b]thiophen-5-yl)methyl) phosphonic acid] | 3 to 30 | 0.1 to 1 |  |  | 
O=C(N[C@H]1CCCC[C@H]2CC[C@@H](C(=O)N[C@H]3CN(C(=O)OC4CC4)C[C@@H]3F)N2C1=O)c1cc2cc(C(F)P(=O)(O)O)ccc2s1 (stereo partly drawn) [Compound 554, ((2-(((3S,6S,10aS)-3-(((3S,4S)-1-(cyclopropoxycarbonyl)-4-fluoropyrrolidin-3-yl)carbamoyl)-5-oxodecahydropyrrolo[1,2-a]azocin-6-yl)carbamoyl)benzo[b]thiophen-5-yl)fluoromethyl)phosphonic acid] | 0.3 to 3 | 1 to 10 |  |  | 
Cn1ncc(C2CCN(C(=O)[C@@H]3CC[C@@H]4CCCC[C@H](NC(=O)c5ccc6ccc(C(F)P(=O)(O)O)cc6c5)C(=O)N43)C2)cc1=O (stereo partly drawn) [Compound 902, (fluoro(7-(((3S,6S,10aS)-3-(3-(1-methyl-6-oxo-1,6-dihydropyridazin-4-yl)pyrrolidine-1-carbonyl)-5-oxodecahydropyrrolo [1,2-a]azocin-6-yl)carbamoyl)naphthalen-2-yl)methyl) phosphonic acid] | 3 to 30 | 1 to 10 |  |  | 
N#Cc1ccnc(C2CN(C(=O)[C@@H]3CC[C@@H]4CCC[C@H](NC(=O)c5cc6cc(C(F)(F)P(=O)(O)O)ccc6s5)C(=O)N43)C2)n1 [Compound 824, ((2-(((3S,6S,9aS)-3-(3-(4-cyanopyrimidin-2-yl)azetidine-1-carbonyl)-5-oxooctahydro-1H-pyrrolo[1,2-a]azepin-6-yl)carbamoyl)benzo [b]thiophen-5-yl)difluoromethyl) phosphonic acid] | 0.3 to 3 | < 0.1 |  |  | 
O=C(N[C@H]1CCCC[C@H]2CC[C@@H](C(=O)N3CC(C(=O)N4CCOCC4)C3)N2C1=O)c1cc2cc(C(F)(F)P(=O)(O)O)ccc2s1 [Compound 93, (difluoro(2-(((3S,6S,10aS)-3-(3-(morpholine-4-carbonyl)azetidine-1-carbonyl)-5-oxodecahydropyrrolo [1,2-a]azocin-6-yl)carbamoyl)benzo[b]thiophen-5-yl)methyl) phosphonic acid] |  |  |  | 3 to 30 | 0.1 to 1

Next, values leading:

IC50 [1, 3] [µM] | IC50 [2, 4] [µM] | IC50 ([1]; STAT6 (W123-T658) 250 nM, probe 5-FAM-ApYKPFQDLI-NH2 2 nM, read-out: STAT6 (FP assay IC50 class)) [µM] | IC50 ([1]; STAT6 250 nM, probe 5-FAM-Ap[…]-NH2 2 nM, read-out: STAT6 (FP assay IC50)) [µM] | IC50 ([2]; STAT3 25 nM, read-out: STAT3 (FP assay IC50)) [µM] | SMILES
≤ 0.3 | 1 to 10 |  |  |  | CCC[C@H]1CC[C@H](NC(=O)c2cc3cc(C(F)P(=O)(O)O)ccc3s2)C(=O)N2[C@H](CC[C@H]2C(=O)N2C[C@@H](C#N)[C@H](c3ccccc3)C2)C1 (single isomer, unassigned) [Compound 240]
0.3 to 3 | < 0.1 |  |  |  | CN(C)c1ccncc1C1CN(C(=O)[C@@H]2CC[C@@H]3CCC[C@H](NC(=O)c4cc5cc([C@H](F)P(=O)(O)O)ccc5s4)C(=O)N32)C1 (single isomer, unassigned) [Compound 634]
 | 1 to 10 | ≤ 0.3 |  |  | N#CC1C(c2ccccc2)CN(C(=O)[C@@H]2CC[C@@H]3CCC[C@H](NC(=O)c4cc5cc([C@@H](F)P(=O)(O)O)ccc5s4)C(=O)N32)C12CC2 (stereo in doubt) [Compound 921, ((S)-(2-(((3S,6S,9aS)-3-((6R,7S)-7-cyano-6-phenyl-4-azaspiro[2.4]heptane-4-carbonyl)-5-oxooctahydro-1H-pyrrolo[1,2-a]azepin-6-yl)carbamoyl)benzo [b]thiophen-5-yl)fluoromethyl) phosphonic acid]
0.3 to 3 | 1 to 10 |  |  |  | Cn1ccc(N2CC[C@@H](NC(=O)[C@@H]3CC[C@@H]4CCCC[C@H](NC(=O)c5cc6cc(C(F)P(=O)(O)O)ccc6s5)C(=O)N43)C2)n1 (stereo partly drawn) [Compound 533, (fluoro(2-(((3S,6S,10aS)-3-(((R)-1-(1-methyl-1H-pyrazol-3-yl)pyrrolidin-3-yl)carbamoyl)-5-oxodecahydropyrrolo[1,2-a]azocin-6-yl)carbamoyl)benzo[b]thiophen-5-yl)methyl)phosphonic acid]
≤ 0.3 | 1 to 10 |  |  |  | CC[C@@H]1CC[C@H](NC(=O)c2cc3cc(C(F)P(=O)(O)O)ccc3s2)C(=O)N2[C@H](CC[C@H]2C(=O)N2C[C@@H](C#N)[C@H](c3ccccc3)C2)C1 (single isomer, unassigned) [Compound 235]
